In general, IC50 refers to the midpoint of a concentration-inhibition curve. The half-life is the time in which the quantity being followed falls by half. A word on the bioavailability: it is dose-corrected exposure relative to a reference, in per cent.

Where a name gives a salt, the structure may show the parent alone.

The values below come from US12473295B2, “Substituted straight chain spiro derivatives” (Janssen Pharmaceutica NV, priority 2019, dated 2025).

One data set concerns KO-52 cells. Briefly: Proliferation assay (spheroid growth, 8 days), KO-52 control cell line. The settings on record: Homo sapiens, […], read-out: spheroid assay_OneTime KO-52 IC50. The data set is classed as cell-based, human. In a few lines:
(§1)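 8-day spheroid growth in ultra-low attachment plates; seeding 200 cells (MOLM14, OCI-AML3) or 300 (KO-52); DMSO 0.3%. Day-8 imaging, confluence vs DMSO (0%) and top reference dose (baseline); IC50 by variable-slope fit.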

A further data set deals with OCI-AML3 cells. In words: Proliferation assay (spheroid growth, 8 days), OCI-AML3. The settings on record: OCI-AML3, 8 days. Type of data set: cell-based, human. The procedure, abridged:
as §1

A further data set has as its system MEIS1 mRNA. Briefly: MEIS1 mRNA expression assay (Quantigene Singleplex) in MOLM14 cells.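 Further: MEIS1 transcript levels read by probe hybridization and normalized to RPL28 mRNA, with IC50 fitted to fold changes across a rising compound concentration series.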 The data set is classed as cell-based, human. The settings on record: Homo sapiens, MOLM-14, 48 h, 48 hours incubation.
In a further data set the target is hERG potassium channel (Homo sapiens (Human), UniProt Q12809). Briefly: Effect on membrane potassium current IKr in hERG transfected CHO cells, Protocol 1 (QPatch). The data set is classed as cell-based. On the procedure: 8) Effect on the Membrane Potassium Current IKr in hERG Transfected Cell Lines
hERG potassium channel, sequence (Q12809 whole entry): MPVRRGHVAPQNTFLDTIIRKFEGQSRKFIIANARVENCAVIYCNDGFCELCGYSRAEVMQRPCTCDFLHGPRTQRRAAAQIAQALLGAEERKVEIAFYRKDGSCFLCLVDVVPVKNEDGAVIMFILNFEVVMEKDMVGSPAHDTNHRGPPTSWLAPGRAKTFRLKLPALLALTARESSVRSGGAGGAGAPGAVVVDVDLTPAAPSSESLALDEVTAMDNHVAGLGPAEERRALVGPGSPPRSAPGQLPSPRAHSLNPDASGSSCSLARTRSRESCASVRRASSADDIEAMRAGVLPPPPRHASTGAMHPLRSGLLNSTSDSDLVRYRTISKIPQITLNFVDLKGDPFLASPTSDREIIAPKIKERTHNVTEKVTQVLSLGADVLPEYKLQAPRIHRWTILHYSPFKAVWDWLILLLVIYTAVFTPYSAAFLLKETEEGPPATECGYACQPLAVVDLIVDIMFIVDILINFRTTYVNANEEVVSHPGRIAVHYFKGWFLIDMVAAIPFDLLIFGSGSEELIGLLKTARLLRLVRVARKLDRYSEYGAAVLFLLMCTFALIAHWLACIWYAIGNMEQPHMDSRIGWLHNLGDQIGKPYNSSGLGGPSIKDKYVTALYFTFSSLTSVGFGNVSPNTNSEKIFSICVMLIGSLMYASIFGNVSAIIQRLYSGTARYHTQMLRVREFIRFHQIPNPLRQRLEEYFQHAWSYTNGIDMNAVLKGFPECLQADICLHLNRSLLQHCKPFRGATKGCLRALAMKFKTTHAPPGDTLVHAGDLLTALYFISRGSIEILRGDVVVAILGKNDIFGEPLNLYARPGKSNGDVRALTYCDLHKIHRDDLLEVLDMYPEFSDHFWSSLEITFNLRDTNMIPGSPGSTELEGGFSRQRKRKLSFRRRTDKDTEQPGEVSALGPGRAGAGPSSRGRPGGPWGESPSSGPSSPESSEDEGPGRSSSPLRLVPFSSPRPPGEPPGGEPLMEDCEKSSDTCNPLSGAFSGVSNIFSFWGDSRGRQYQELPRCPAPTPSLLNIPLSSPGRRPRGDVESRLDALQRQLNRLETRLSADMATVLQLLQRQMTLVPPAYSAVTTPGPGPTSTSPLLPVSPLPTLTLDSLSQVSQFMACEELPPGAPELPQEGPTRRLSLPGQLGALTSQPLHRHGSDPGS
• CHO Chinese hamster ovary cell line • DMSO Dimethylsulfoxide • hERG human ether-á-go-go-related gene • IKr rapidly activating delayed-rectifier K^+ current Methods
Experiments were performed using CHO cells stably expressing the hERG potassium channel. Cells were grown at 37° C. and 5% CO2 in culture flasks in Ham's F12 Medium supplemented with 10% heat-inactivated fetal calf serum, hygromycin B (100 μg/ml) and geneticin (100 μg/ml). For use in the automated patch-clamp system QPatch (Sophion) cells were harvested to obtain cell suspension of single cells.
Solutions: The bath solution contained (in mM) 145 NaCl, 4 KCl, 10 glucose, 10 HEPES ((4-(2-hydroxyethyl)-1-piperazineethanesulfonic acid), 2 CaCl2 and 1 MgCl2 (pH 7.4 with NaOH). The pipette solution contained (in mM) 120 KCl, 10 EGTA (Ethylene glycol-bis(2-aminoethylether)-N,N,N′,N′-tetraacetic acid), 10 HEPES, 5.374 CaCl2 and 1.75 MgCl2 (pH 7.2 with KOH).
Patch-clamp experiments were performed in the voltage-clamp mode and whole-cell currents were recorded with an automated patch-clamp assay utilizing the QPatch system (Sophion). Current signals were amplified and digitized, stored and analyzed by using the QPatch assay software.
The holding potential was −80 mV. The hERG current (K^+-selective outward current) was determined as the maximal tail current at −40 mV after a 2 second depolarization to +60 mV. Pulse cycling rate was 15 s. A short pulse (90 ms) to −40 mV served as a baseline step to calculate the tail current amplitude. After establishing whole-cell configuration and a stability period, the solvent control (0.3% DMSO) was applied for 5 minutes followed by the test substance by four increasing concentrations of 3×10^−7 M, 3×10^−6 M, 10^−5 M and 3×10^−5 M. Each concentration of the test substance was applied twice. The effect of each concentration was determined after 5 min as an average current of 3 sequential voltage pulses. To determine the extent of block the residual current was compared with vehicle pre-treatment.
Concentration/response relations were calculated by non-linear least-squares fits to the individual data points. The half-maximal inhibiting concentration (IC50) was calculated by the fitting routine.
On the technique in general: Block of hERG is tested as a sign of cardiac risk.

Another data set deals with MOLM14 cells. Briefly: Proliferation assay (spheroid growth, 8 days), MOLM14.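 Further: spheroid size read as confluence by live-cell imaging, compounds added at a range of concentrations with 0.3% DMSO, DMSO-treated wells = 0%, highest reference dose = low control.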 The following applies: Homo sapiens, MOLM-14, […], MOLM14, 8 days; read-out: spheroid assay_OneTime MOLM14 IC50. The data set is classed as cell-based, human.
Data set [1] addresses menin/MLL (terbium chelate-labeled menin, FITC-MBM1 peptide) (Homo sapiens (Human), UniProt O00255). Briefly: Menin/MLL homogenous time-resolved fluorescence (HTRF) assay.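 Further: IC50 from percent inhibition of HTRF signal, normalized between wells without competitor and wells with a saturating competitor that displaces FITC-MBM1 from His-tagged menin.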 The data set is classed as binding. The settings on record: HTRF-30 min incubation IC50, 30 min incubation. For orientation: Time-resolved FRET reads energy transfer from a long-lived donor to a nearby acceptor.

A short description of data set [2]: Mouse PK (in vivo T1/2 and oral bioavailability). The following applies: fasted male CD-1 mice, formulating agent HP-β-CD; for half-life: single IV 0.5 or 1.0 mg/kg; for bioavailability: single PO 5 mg/kg. Here is the method:
3) Mouse PK (In Vivo T1/2 and Oral Bioavailability)
In vivo pharmacokinetics (PK) were assessed in fasted male CD-1 mice (age 6-8 weeks) following a single intravenous (IV, 0.5 or 1.0 mg/kg administered at 2.5 ml/kg) or oral (PO, 5 mg/kg administered at 10 ml solution/kg) dose of test article formulated in a 20% (w:vol) HP-β-CD solution or in Pyrogen free water.
Plasma and/or whole blood samples were collected from the dorsal metatarsal vein at desired timepoints via serial capillary microsampling (approx. 0.03 mL) using EDTA as an anticoagulant. Concentrations of compound in the plasma and blood samples were analyzed using a qualified LC-MS/MS method. In silico analysis of main pharmacokinetic parameters was performed using WinNonlin (Phoenix™, version 6.1) or similar software. (Results see Table 4)

Data set [3] in a line: Metabolic stability in mouse liver microsomes. The settings on record: mouse liver microsomes 0.5 mg/mL, 1 μM test compound, pH 7.4; read-out: Mouse LM Clint. The data set is classed as in vitro ADME. On the procedure:
4) Metabolic Stability in Human/Mouse Liver Microsomes
The objective of this study is to measure in vitro metabolic stability of test compound(s) in human and mouse liver microsomes and provide quantitative information on the rate of metabolic turnover (i.e. determination of the apparent intrinsic clearance of test).
Test items were prepared at a stock concentration of 10 mM in DMSO. For determination of metabolic turnover, a final working solution was prepared by adding 2 μL of 10 mM DMSO stock solution for test compound or positive control compounds to 198 μL of acetonitrile (100 μM final concentration).
Incubations were performed as follows: First, liver microsomes were thawed on ice and a master solution containing liver microsomes in 100 mM PBS (phosphate-buffered saline) at pH 7.4 is prepared. Next, the liver microsomes solution was added to the incubation plates and 10 mM NADPH (Nicotinamide-adenine dinucleotide phosphate) was added (MW: 833.4 g/mol; Roche Diagnostics GmbH, Germany. Dissolved in phosphate buffer (100 mmol/L, pH 7.4)). The mixture was mixed for 10 seconds and pre-warmed in the incubation plate at 37° C. for 10 minutes. The metabolic reaction was initiated with the addition of 5 μL of the 100 μM working solution for test compound or positive control compounds to incubation plate (final test item concentration=1 μM). The reaction final mixture should contain 1 mM NADPH, 0.5 mg/mL microsomes protein and 1 μM test compound or positive control compound in 100 mM PBS at pH 7.4. The percentage of organic solvent in incubation mixture is 1% with DMSO ≤0.02%.
The reaction was quenched by transferring 50 μL of the incubated mixture at selected time points into the quenching plate containing 200 μL of cold methanol. After sampling of all the timepoints the quenching plate was centrifuged at 4000 rpm for 40 minutes to precipitate protein. A total of 90 μL of the supernatant was transferred to an analysis plate and ultra-pure H2O water is added into each well for LC/MS/MS analysis. All incubations and analysis were performed in duplicate.
All calculations were carried out using Microsoft Excel. The slope value, k, was determined by linear regression of the natural logarithm of the remaining percentage of the parent drug vs. incubation time curve.
The in vitro half-life (in vitro tin) was determined from the slope value: in vitro t1/2=−(0.693/k)
Conversion of the in vitro tin (in min) into the in vitro intrinsic clearance (in vitro CLint, in μL/min/mg proteins) was done using the following equation: […]
A general note: Liver microsomes are vesicles of endoplasmic reticulum, rich in cytochrome P450 enzymes.

menin/MLL (terbium chelate-labeled menin, FITC-MBM1 peptide), sequence (O00255 other isoform, or with tags, fused parts or gaps): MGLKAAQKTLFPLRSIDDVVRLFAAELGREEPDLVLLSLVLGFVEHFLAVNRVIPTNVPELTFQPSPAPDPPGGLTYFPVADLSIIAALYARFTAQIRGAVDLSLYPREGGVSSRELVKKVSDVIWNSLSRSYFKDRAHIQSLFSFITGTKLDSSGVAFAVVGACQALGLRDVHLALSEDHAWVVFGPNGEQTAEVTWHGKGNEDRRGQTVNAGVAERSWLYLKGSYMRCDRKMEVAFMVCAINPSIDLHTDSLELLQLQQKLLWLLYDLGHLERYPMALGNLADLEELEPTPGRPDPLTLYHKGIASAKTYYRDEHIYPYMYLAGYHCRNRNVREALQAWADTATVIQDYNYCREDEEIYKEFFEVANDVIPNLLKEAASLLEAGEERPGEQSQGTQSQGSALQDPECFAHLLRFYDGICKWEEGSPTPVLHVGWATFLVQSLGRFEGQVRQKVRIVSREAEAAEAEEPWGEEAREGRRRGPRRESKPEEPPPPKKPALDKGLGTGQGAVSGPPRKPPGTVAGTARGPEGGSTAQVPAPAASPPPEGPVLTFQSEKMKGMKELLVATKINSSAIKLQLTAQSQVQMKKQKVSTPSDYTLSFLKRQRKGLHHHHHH

Turning to `CCN(C(=O)c1cc(F)ccc1Oc1nncnc1N1CCC2(C1)CN([C@H](CCCNCC(F)(F)F)C(C)C)C2)C(C)C` [Compound 17, (R)-N-ethyl-5-fluoro-N-isopropyl-2-((5-(2-(2-methyl-6-((2,2,2-trifluoroethyl)amino)hexan-3-yl)-2,6-diazaspiro[3.4]octan-6-yl)-1,2,4-triazin-6-yl)oxy)benzamide], the half-inhibitory concentration (IC50) in the data set with KO-52 cells is 6790 nM; in the data set on OCI-AML3 cells (Homo sapiens, OCI-AML-3, […]), 1440 nM; in the data set on MEIS1 mRNA it was 240 nM; against hERG potassium channel, 4100 nM; with MOLM14 cells, 300 nM; in data set [1], 0.61 nM.
For the compound `CCN(C(=O)c1cc(F)ccc1Oc1nncnc1N1CCC2(C1)CN(C(CCCNCCS(C)(=O)=O)C(C)C)C2)C(C)C` (centres unmarked) [Compound 18, N-ethyl-5-fluoro-N-isopropyl-2-((5-(2-(2-methyl-6-((2-(methylsulfonyl)ethyl)amino)hexan-3-yl)-2,6-diazaspiro[3.4]octan-6-yl)-1,2,4-triazin-6-yl)oxy)benzamide], the IC50 with KO-52 cells is above 15000 nM; in the data set with OCI-AML3 cells (Homo sapiens, OCI-AML-3, […]) it was 660 nM; with MEIS1 mRNA, 150 nM; on hERG potassium channel, above 30200 nM; in the data set with MOLM14 cells, 120 nM; in data set [1], 0.3 nM.
On to `CCN(C(=O)c1cc(F)ccc1Oc1nncnc1N1CCC2(C1)CN([C@H](CCCN(C)CC(=O)N(C)C)C(C)C)C2)C(C)C` [Compound 23], for which the IC50 is 13800 nM in the data set with KO-52 cells; 810 nM in the data set on OCI-AML3 cells (Homo sapiens, OCI-AML-3, […]); 150 nM in the data set with MEIS1 mRNA; above 30200 nM against hERG potassium channel; 170 nM with MOLM14 cells; 0.22 nM in data set [1].
Consider `CCN(C(=O)c1cc(F)ccc1Oc1nncnc1N1CCC2(C1)CN([C@H](CCCNC(=O)OC(C)OC(=O)C(C)C)C(C)C)C2)C(C)C` (stereo partly drawn) [Compound 39, 1-((((R)-4-(6-(6-(2-(ethyl(isopropyl)carbamoyl)-4-fluorophenoxy)-1,2,4-triazin-5-yl)-2,6-diazaspiro[3.4]octan-2-yl)-5-methylhexyl)carbamoyl)oxy)ethyl isobutyrate], for which the IC50 in the data set with KO-52 cells is above 15000 nM; in the data set with OCI-AML3 cells (Homo sapiens, OCI-AML-3, […]), 140 nM; in the data set with MEIS1 mRNA, 44 nM; on hERG potassium channel, 7600 nM; in the data set on MOLM14 cells it was 27 nM; in data set [1], 0.26 nM.
For `CCN(C(=O)c1cc(F)ccc1Oc1nncnc1N1CCC2(C1)CN([C@H](CCCN(C)C(=O)OC(C)OC(=O)C(C)C)C(C)C)C2)C(C)C` (stereo partly drawn) [Compound 40, 1-((((R)-4-(6-(6-(2-(ethyl(isopropyl)carbamoyl)-4-fluorophenoxy)-1,2,4-triazin-5-yl)-2,6-diazaspiro[3.4]octan-2-yl)-5-methylhexyl)(methyl)carbamoyl)oxy)ethyl isobutyrate], the IC50 in the data set on KO-52 cells amounted to 9540 nM; in the data set on OCI-AML3 cells (Homo sapiens, OCI-AML-3, […]), 74 nM; in the data set on MEIS1 mRNA it was 19 nM; at hERG potassium channel, 5000 nM; in the data set with MOLM14 cells, 19 nM; in data set [1] it was 0.4 nM.
With `CCN(C(=O)c1cc(F)ccc1Oc1nncnc1N1CCC2(C1)CN([C@H](CCCN[C@H](C)COC)C(C)C)C2)C(C)C.O=C(O)/C=C/C(=O)O` [Compound 112], in data set [2], the half-life was 6.2 h and the bioavailability amounted to 4%.
The matching figures for `CCN(C(=O)c1cc(F)ccc1Oc1nncnc1N1CCC2(C1)CN([C@H](CCCNCCC(F)F)C(C)C)C2)C(C)C.O=C(O)/C=C/C(=O)O` [Compound 114]: 9.5 h and 8.7%.
Take `CCN(C(=O)c1cc(F)ccc1Oc1nncnc1N1CCC2(C1)CN([C@H](CCCN(C)CC(C)OC)C(C)C)C2)C(C)C` (stereo partly drawn) [Compound 252, N-ethyl-5-fluoro-N-isopropyl-2-((5-(2-((3R)-6-((2-methoxypropyl)(methyl)amino)-2-methylhexan-3-yl)-2,6-diazaspiro[3.4]octan-6-yl)-1,2,4-triazin-6-yl)oxy)benzamide oxalate]: the IC50 in the data set on KO-52 cells was 7260 nM; in the data set on OCI-AML3 cells (Homo sapiens, OCI-AML-3, […]) it was 640 nM; in the data set on MEIS1 mRNA it was 53 nM; at hERG potassium channel, above 30200 nM; with MOLM14 cells, 32 nM; in data set [1], 0.065 nM.
Consider `CCOCCN(C)CCC[C@H](C(C)C)N1CC2(CCN(c3ncnnc3Oc3ccc(F)cc3C(=O)N(CC)C(C)C)C2)C1` [Compound 258, (R)-2-((5-(2-(6-((2-ethoxyethyl)(methyl)amino)-2-methylhexan-3-yl)-2,6-diazaspiro[3.4]octan-6-yl)-1,2,4-triazin-6-yl)oxy)-N-ethyl-5-fluoro-N-isopropylbenzamide oxalate], for which the IC50 was 5440 nM in the data set with KO-52 cells; 740 nM in the data set on OCI-AML3 cells (Homo sapiens, OCI-AML-3, […]); 26 nM with MEIS1 mRNA; above 30200 nM against hERG potassium channel; 27 nM in the data set with MOLM14 cells; 0.33 nM in data set [1].
As for `CCN(C(=O)c1cc(F)ccc1Oc1nncnc1N1CCC2(C1)CN([C@H](CCCNCCOC)C(C)C)C2)C(C)C` [Compound 397, (R)-N-ethyl-5-fluoro-N-isopropyl-2-((5-(2-(6-((2-methoxyethyl)amino)-2-methylhexan-3-yl)-2,6-diazaspiro[3.4]octan-6-yl)-1,2,4-triazin-6-yl)oxy)benzamide fumarate], the IC50 in the data set with KO-52 cells is above 15000 nM; in the data set on OCI-AML3 cells (fumarate), 27 nM; in the data set with MOLM14 cells, 15 nM. Besides, in data set [3], the microsomal CLint at 1 μM was below 7.5 µL/min/mg.
